From the supplement of paper PMC11368000

Experiments:
Details in all cases: exposure time: 90 min
30145 [1] = donor line of iPSC-derived cardiomyocytes; test: POD (EC05) for increase in beat frequency (positive chronotrope) vs vehicle; higher = less potent (higher point of departure)
Summary of the method: (§1)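 Cardiomyocytes from human iPSCs of 16 donors spent 14 days in gelatin-coated 384-well plates before 2 h of fluorescent Ca2+ dye loading. They were then held for 90 min at 37 °C at final concentrations of 0.1, 1, 10 and 100 µM containing 0.5% DMSO, and Ca2+ flux was read on a FLIPR Tetra (8 frames/s, 100 s) before and after. Donor-level points of departure were taken from hierarchical Bayesian Hill fits to vehicle-normalised beat frequency, decay-to-rise ratio or peak frequency. For these, a 5% change was the threshold, or a 95% loss for peak frequency.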

1083 = donor line of iPSC-derived cardiomyocytes; test: POD (EC05) for decrease in beat frequency (negative chronotrope) vs vehicle; higher = less potent (higher point of departure)
Method: (§2)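 Human iPSC-derived cardiomyocytes from 16 donors were exposed for 90 min at 37 °C to each PFAS at 0.1, 1, 10 and 100 µM in 0.5% DMSO, 384-well plates. Kinetic Ca2+ flux (FLIPR) and Hoechst nuclei counts were normalised to vehicle wells and fitted with a hierarchical Bayesian Hill model to give donor-specific PODs: EC05 for beat-rate increase or decrease and for decay-to-rise ratio increase (QT proxy), EC95 for peak-frequency loss (asystole), EC10 for total cell number loss. 0.03 µM is the lower bound.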

1518 [2] = donor line of iPSC-derived cardiomyocytes; test: as above
Method: as §2

1516 [3] = donor line of iPSC-derived cardiomyocytes; test: as above
Method: as §2

1368 = donor line of iPSC-derived cardiomyocytes; test: as above
Method: as §2

1434 = donor line of iPSC-derived cardiomyocytes; test: as above
Method: as §2

1565 = donor line of iPSC-derived cardiomyocytes; test: as above
Method: as §2

30171 = donor line of iPSC-derived cardiomyocytes; test: as above
Method: as §2

30145 [4] = test: as above
Method: as §2

20084 = donor line of iPSC-derived cardiomyocytes; test: as above
Method: as §2

1535 = donor line of iPSC-derived cardiomyocytes; test: as above
Method: as §2

20032 = donor line of iPSC-derived cardiomyocytes; test: as above
Method: as §2

1392 = donor line of iPSC-derived cardiomyocytes; test: as above
Method: as §2

1118 = donor line of iPSC-derived cardiomyocytes; test: as above
Method: as §2

11235 = donor line of iPSC-derived cardiomyocytes; test: as above
Method: as §2

1531 [5] = donor line of iPSC-derived cardiomyocytes; test: as above
Method: as §2

1309 = donor line of iPSC-derived cardiomyocytes; test: as above
Method: as §2

1518 [6] = test: POD (EC05) for increase in Ca2+ transient decay-to-rise ratio (QT prolongation) vs vehicle; higher = less potent (higher point of departure)
Summary of the method: as §1

1516 [7] = test: as above
Summary of the method: as §1

1531 [8] = test: as above
Summary of the method: as §1

| Compound | POD vs vehicle 30145 [1] | POD vs vehicle 1083 | POD vs vehicle 1518 [2] | POD vs vehicle 1516 [3] | POD vs vehicle 1368 | POD vs vehicle 1434 | POD vs vehicle 1565 | POD vs vehicle 30171 | POD vs vehicle 30145 [4] | POD vs vehicle 20084 | POD vs vehicle 1535 | POD vs vehicle 20032 | POD vs vehicle 1392 | POD vs vehicle 1118 | POD vs vehicle 11235 | POD vs vehicle 1531 [5] | POD vs vehicle 1309 | POD vs vehicle 1518 [6] | POD vs vehicle 1516 [7] | POD vs vehicle 1531 [8] |
| --- | --- | --- | --- | --- | --- | --- | --- | --- | --- | --- | --- | --- | --- | --- | --- | --- | --- | --- | --- | --- |
| O=P(O)(O)CCC(F)(F)C(F)(F)C(F)(F)C(F)(F)C(F)(F)C(F)(F)C(F)(F)C(F)(F)F [((Perfluorooctyl)ethyl)phosphonic_acid] | > 100 µM | > 100 µM | > 100 µM | > 100 µM | > 100 µM | > 100 µM | > 100 µM | > 100 µM | > 100 µM | > 100 µM | > 100 µM | > 100 µM | > 100 µM | > 100 µM | > 100 µM | > 100 µM | > 100 µM | > 100 µM | > 100 µM | > 100 µM |
| OCC(F)(F)C(F)(F)C(F)(F)C(F)(F)C(F)(F)C(F)F [Dodecafluoroheptanol] | > 100 µM | 15.3 µM | 14.9 µM | 18.9 µM | 13.7 µM | 18.1 µM | 20.3 µM | 20.1 µM | 19.4 µM | 19.3 µM | 18.4 µM | 18.3 µM | 18 µM | 1.39 µM | 19.2 µM | 15.7 µM | 19.4 µM | > 100 µM | > 100 µM | > 100 µM |
| COC(=O)C(F)(F)C(F)(F)OC(F)(C(F)(F)F)C(F)(F)OC(F)=C(F)F (stereo not given) [Methyl_perfluoro(3-(1-ethenyloxypropan-2-yloxy)propanoate)] | > 100 µM | > 100 µM | > 100 µM | > 100 µM | > 100 µM | > 100 µM | > 100 µM | > 100 µM | > 100 µM | > 100 µM | > 100 µM | > 100 µM | > 100 µM | > 100 µM | > 100 µM | > 100 µM | > 100 µM | > 100 µM | > 100 µM | 24.9 µM |
| NC(=O)C(F)(F)C(F)(F)C(F)(F)C(F)(F)C(N)=O [Octafluoroadipamide] | > 100 µM | > 100 µM | > 100 µM | > 100 µM | > 100 µM | > 100 µM | > 100 µM | > 100 µM | > 100 µM | > 100 µM | > 100 µM | > 100 µM | > 100 µM | > 100 µM | > 100 µM | > 100 µM | > 100 µM | > 100 µM | > 100 µM | > 100 µM |
| O=C(O)C(F)(F)C(F)(F)C(F)(F)OC(F)(F)F [Perfluoro(4-methoxybutanoic)_acid] | > 100 µM | > 100 µM | > 100 µM | > 100 µM | > 100 µM | > 100 µM | > 100 µM | > 100 µM | > 100 µM | > 100 µM | > 100 µM | > 100 µM | > 100 µM | > 100 µM | > 100 µM | > 100 µM | > 100 µM | > 100 µM | > 100 µM | > 100 µM |
| O=C(O)C(F)(F)C(F)(F)OC(F)(F)F [Perfluoro-3-methoxypropanoic_acid] | > 100 µM | > 100 µM | > 100 µM | > 100 µM | > 100 µM | > 100 µM | > 100 µM | > 100 µM | > 100 µM | > 100 µM | > 100 µM | > 100 µM | > 100 µM | > 100 µM | > 100 µM | > 100 µM | > 100 µM | > 100 µM | > 100 µM | > 100 µM |
| O=C(O)C(F)(F)C(F)(F)C(F)(F)F [Perfluorobutanoic_acid] | > 100 µM | > 100 µM | > 100 µM | > 100 µM | > 100 µM | > 100 µM | > 100 µM | > 100 µM | > 100 µM | > 100 µM | > 100 µM | > 100 µM | > 100 µM | > 100 µM | > 100 µM | > 100 µM | > 100 µM | > 100 µM | > 100 µM | > 100 µM |
| O=C(O)C(F)(F)C(F)(F)C(F)(F)C(F)(F)C(F)(F)C(F)(F)C(F)(F)C(F)(F)C(F)(F)F [Perfluorodecanoic_acid] | > 100 µM | 18.3 µM | > 100 µM | 14.9 µM | > 100 µM | 12.4 µM | > 100 µM | 7.83 µM | > 100 µM | 77.6 µM | 66.5 µM | > 100 µM | 27.5 µM | 2.31 µM | 15.5 µM | 64.4 µM | 56.2 µM | > 100 µM | > 100 µM | > 100 µM |
| NS(=O)(=O)C(F)(F)C(F)(F)C(F)(F)C(F)(F)C(F)(F)C(F)(F)F [Perfluorohexanesulfonamide] | > 100 µM | 25.7 µM | 32.8 µM | 14.3 µM | > 100 µM | 9.37 µM | 92 µM | 7.7 µM | 34.9 µM | 54.4 µM | 12.6 µM | 13.4 µM | 91.8 µM | 1.33 µM | 0.693 µM | 6.44 µM | 14.7 µM | > 100 µM | > 100 µM | > 100 µM |
| O=S(=O)(O)C(F)(F)C(F)(F)C(F)(F)C(F)(F)C(F)(F)C(F)(F)F [Perfluorohexanesulfonic_acid] | > 100 µM | > 100 µM | > 100 µM | 17.6 µM | > 100 µM | 63.6 µM | 81.7 µM | 46.1 µM | > 100 µM | > 100 µM | 43.4 µM | 84.5 µM | > 100 µM | 19.6 µM | 26.5 µM | 24.5 µM | 78.1 µM | > 100 µM | > 100 µM | > 100 µM |
| O=C(O)C(F)(F)C(F)(F)C(F)(F)C(F)(F)C(F)(F)F [Perfluorohexanoic_acid] | > 100 µM | > 100 µM | > 100 µM | > 100 µM | > 100 µM | > 100 µM | > 100 µM | > 100 µM | > 100 µM | > 100 µM | > 100 µM | > 100 µM | > 100 µM | > 100 µM | > 100 µM | > 100 µM | > 100 µM | > 100 µM | > 100 µM | > 100 µM |
| O=S(=O)(O)C(F)(F)C(F)(F)C(F)(F)C(F)(F)C(F)(F)C(F)(F)C(F)(F)C(F)(F)F [Perfluorooctanesulfonic_acid] | > 100 µM | > 100 µM | > 100 µM | 20.4 µM | > 100 µM | 13.3 µM | > 100 µM | 6.94 µM | > 100 µM | 80.7 µM | > 100 µM | > 100 µM | > 100 µM | 10.6 µM | 0.581 µM | 59.1 µM | > 100 µM | > 100 µM | > 100 µM | > 100 µM |
| O=C(O)C(F)(F)C(F)(F)C(F)(F)C(F)(F)C(F)(F)C(F)(F)C(F)(F)F [Perfluorooctanoic_acid] | > 100 µM | > 100 µM | 92.7 µM | 9 µM | > 100 µM | 26.1 µM | > 100 µM | 7.04 µM | > 100 µM | > 100 µM | 41.8 µM | 51.5 µM | > 100 µM | 7.02 µM | 5.14 µM | 49 µM | 11.1 µM | > 100 µM | > 100 µM | > 100 µM |
| O=C(O)C(F)(F)C(F)(F)C(F)(F)C(F)(F)F [Perfluoropentanoic_acid] | > 100 µM | > 100 µM | > 100 µM | > 100 µM | > 100 µM | > 100 µM | > 100 µM | > 100 µM | > 100 µM | > 100 µM | > 100 µM | > 100 µM | > 100 µM | > 100 µM | > 100 µM | > 100 µM | > 100 µM | > 100 µM | > 100 µM | > 100 µM |
| O=C(O)C(F)(F)C(F)(F)F [Perfluoropropanoic_acid] | > 100 µM | > 100 µM | > 100 µM | > 100 µM | > 100 µM | > 100 µM | > 100 µM | > 100 µM | > 100 µM | > 100 µM | > 100 µM | > 100 µM | > 100 µM | > 100 µM | > 100 µM | > 100 µM | > 100 µM | > 100 µM | > 100 µM | 0.307 µM |
